From patent US8008301B2, “Histamine H3 receptor agents, preparation and therapeutic uses” (Eli Lilly and Company, priority 2004, dated 2011)

Biological target: T1, H3R membranes (H3R8-expressing HEK293 cell line) (Homo sapiens, UniProt Q9Y5N1)
T1 construct: expressed in transfected cells; membranes
Experiment: [35S] GTPγ[S] binding assay, antagonist activity in the presence of agonist R(-)alpha methylhistamine
Format: biochemical
Conditions: inhibition of [35S]GTPγS binding to H3R membranes in presence of agonist
Method: Membranes isolated as described in (Preparation of Histamine Receptor Subtype Membranes) were used in a [35S]GTPχS functional assay. Binding of [35S]GTPχS to membranes indicates agonist activity. Compounds of the invention of Formula I or Formula II were tested for their ability to inhibit binding in the presence of agonists. Alternately, the same transfected cell lines were used for a cAMP assay wherein H3R agonists inhibited forskolin-activated synthesis of cAMP. Compounds of Formula I or Formula II were tested for their ability to permit forskolin-stimulated cAMP synthesis in the presence of agonist.
Antagonist activity of selected compounds was tested for inhibition of [35S] GTP γ [S] binding to H3R membranes in the presence of agonists. Assays were run at room temperature in 20 mM HEPES, 100 mM NaCl, 5 mM MgCl2 and 10 uM GDP at pH 7.4 in a final volume of 200 ul in 96-well Costar plates. Membranes isolated from H3R8-expressing HEK293 cell line (20 ug/well) and GDP were added to each well in a volume of 50 μl assay buffer. Antagonist was then added to the wells in a volume of 50 μl assay buffer and incubated for 15 minutes at room temperature. […] Plates were counted in Wallac Trilux 1450 Microbeta scintillation counter for 1 minute. […]

T1 sequence (Q9Y5N1 whole entry): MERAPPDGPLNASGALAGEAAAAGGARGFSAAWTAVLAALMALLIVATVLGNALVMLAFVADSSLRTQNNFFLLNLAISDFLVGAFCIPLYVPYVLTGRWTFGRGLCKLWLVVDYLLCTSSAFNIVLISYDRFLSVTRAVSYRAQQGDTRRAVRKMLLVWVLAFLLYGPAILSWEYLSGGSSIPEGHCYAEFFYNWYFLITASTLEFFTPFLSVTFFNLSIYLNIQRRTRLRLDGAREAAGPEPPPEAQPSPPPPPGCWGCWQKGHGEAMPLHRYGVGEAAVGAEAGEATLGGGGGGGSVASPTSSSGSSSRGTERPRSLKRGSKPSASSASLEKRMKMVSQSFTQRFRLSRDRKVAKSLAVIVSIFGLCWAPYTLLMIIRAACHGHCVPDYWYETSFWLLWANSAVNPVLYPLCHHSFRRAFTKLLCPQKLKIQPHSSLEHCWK

- Ki: 49 nM
Structure (SMILES): O=C(c1ccc(-c2ccccn2)cc1)N1CCC[C@H]1CN1CCCC1
